Test results published in patent US20250361230A1, “LATS Inhibitors and Uses Thereof” (The USA, as Represented by the Secretary, Dept. of Heath …, priority 2022, published 2025).

Biological target: T1, AKT Kinase-NanoLuc fusion in HEK-293 cells (Homo sapiens, UniProt P31749)
T1 construct: host or cells: HEK-293
Assay: NanoBRET target engagement assay in transfected HEK-293 cells, AKT
Assay type: cell-based
Conditions: Table 28, NanoBRET, HEK-293 cells; read-out: AKT1 (Cellular) IC50
Source text: The NanoBRET™ assay measures kinase engagement in real time in the context of the intact cell. The assay uses a Kinase-NanoLuc® fusion vector expressing a kinase protein to which a luciferase tag has been added, a cell-permeant fluorescent NanoBRET™ tracer, a NanoLuc® substrate, and an extracellular NanoLuc® inhibitor. Upon expression of the luciferase-tagged kinase, cells will produce a strong BRET signal only in the presence of the NanoBRET™ tracer. The extracellular NanoLuc® inhibitor ensures that the BRET signal observed emanates only from live cells. Because the BRET signal has tight distance constraints, addition of the test compound will decrease the BRET signal if the compound competes with the NanoBRET™ tracer for binding to the kinase domain. Under the appropriate tracer conditions established by the manufacturer, quantitative intracellular affinity and relative potency can then be determined using Mass Action model equations.
HEK-293 cells were purchased from ATCC. FuGENEHD Transfection Reagent, Kinase-NanoLuc® fusion plasmids, Transfection Carrier DNA, NanoBRET™ Tracers and dilution buffer, NanoBRET™ Nano-Glo Substrate, Extracellular NanoLuc® Inhibitor were obtained from Promega.
Assays were conducted following Promega assay protocol with some modifications as described further below. HEK-293 Cells were transiently transfected with Kinase-NanoLuc® Fusion Vector DNA by FuGENE HD Transfection Reagent. Test compounds were delivered into 384 well assay plate by Echo 550 (Labcyte Inc, Sunnyvale, CA). Transfected cells were harvested and mixed with NanoBRET™ Tracer Reagent and dispensed into 384 well plates and incubated at 37° C. in 5% CO2 cell culture incubator for 1 hour. The NanoBRET™ Nano-Glo Substrate plus Extracellular NanoLuc® Inhibitor Solution were added into the wells of the assay plate and incubated for 2-3 minutes at room temperature. The donor emission wavelength (460 nm) and acceptor emission wavelength (600 nm) were measured in the EnVision plate reader. The BRET Ratios were calculated. BRET Ratio=[(Acceptor sample÷Donor sample)−(Acceptor no-tracer control÷Donor no-tracer control)]. The IC50 values of compounds were calculated with Prism GraphPad program.
• 1. Transient Transfection of HEK-293 Cells NanoLuc® Fusion Vector DNA • 1). Cultivate HEK-293 cells (70-80% confluence) appropriately prior to assay. Trypsinize and collect HEK-293 cells. • 2). Prepare lipid: DNA complexes as follows: • a. Prepare a […] solution of DNA in Opti-MEM™ without serum that consists of the following ratios of carrier DNA and DNA encoding NanoLuc® fusion. 9.0 µg/mL of Transfection Carrier DNA, […] of NanoLuc® fusion vector DNA and 1 mL of Opti-MEM™ without phenol red. Mix thoroughly. • b. Add 30 μl of FuGENE HD Transfection Reagent into each milliliter of DNA mixture to form lipid: DNA complex. • c. Mix by inversion 10 times. • d. Incubate at ambient temperature for 20 minutes to allow complexes to form. • 3). In a sterile, conical tube, mix 1 part of lipid: DNA complex with 20 parts of HEK-293 cells in suspension. Mix gently by inversion 5 times. • 4). Dispense cells+lipid: DNA complex into a sterile tissue culture dish and incubate for 22-24 hours. • 2. Addition of Test Compounds (dry plate shooting): Each test compound is delivered from the compound source plate to the wells of 384-well white NBS plate by Echo 550. • 3. Preparation of Cells with NanoBRET™ Tracer Reagent • 1). Remove medium from dish with transfected HEK-293 cells via aspiration, trypsinize and allow cells to dissociate from the dish. • 2). Neutralize trypsin using medium containing serum and centrifuge at 200× g for 5 minutes to pellet the cells. Adjust the cell density to 2×10^5 cells/mL in Opti-MEM™ without phenol red. • 3). Prepare Complete 20× NanoBRET™ Tracer Reagent with Tracer Dilution Buffer. • 4). Dispense one part of Complete 20× NanoBRET™ Tracer Reagent to 20 parts of cells in the tube. Mix gently by inversion 10 times. • 5). […]

T1 sequence (P31749 whole entry, the tested form may be a part): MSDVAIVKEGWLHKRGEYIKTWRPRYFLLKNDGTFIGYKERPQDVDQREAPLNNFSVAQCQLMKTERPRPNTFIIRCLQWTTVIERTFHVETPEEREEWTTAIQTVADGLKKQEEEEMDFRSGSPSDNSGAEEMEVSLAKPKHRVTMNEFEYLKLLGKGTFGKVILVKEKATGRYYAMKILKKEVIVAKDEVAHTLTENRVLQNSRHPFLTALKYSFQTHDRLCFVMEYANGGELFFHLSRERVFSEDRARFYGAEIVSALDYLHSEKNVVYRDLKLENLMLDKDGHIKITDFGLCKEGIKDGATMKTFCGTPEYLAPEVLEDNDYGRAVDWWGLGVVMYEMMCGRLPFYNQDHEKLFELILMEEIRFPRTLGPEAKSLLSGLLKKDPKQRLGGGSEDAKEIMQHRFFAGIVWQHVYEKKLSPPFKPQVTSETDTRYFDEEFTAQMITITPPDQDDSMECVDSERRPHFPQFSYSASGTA

| Structure (SMILES) | IC50 [µM] |
| --- | --- |
| C[C@@H]1CN(CC(N)=O)C[C@H](C)[C@@]1(O)c1c(F)cc(-c2ccnc3[nH]cc(F)c23)cc1F [Compound 88, 2-((3R,4s,5S)-4-(2,6-difluoro-4-(3-fluoro-1H-pyrrolo[2,3-b]pyridin-4-yl)phenyl)-4-hydroxy-3,5-dimethylpiperidin-1-yl)acetamide] | > 30 |
| C[C@@H]1CN(C2CCNCC2)C[C@H](C)[C@@]1(O)c1c(F)cc(-c2ccnc3[nH]cc(F)c23)cc1F [Compound 90, (3R,4s,5S)-4-(2,6-difluoro-4-(3-fluoro-1H-pyrrolo[2,3-b]pyridin-4-yl)phenyl)-3,5-dimethyl-[1,4′-bipiperidin]-4-ol] | 32.3 |
| OC1(c2ccc(-c3ccnc4[nH]cc(F)c34)cc2)CCNCC1 [Compound 110, 4-(4-(3-fluoro-1H-pyrrolo[2,3-b]pyridin-4-yl)phenyl)piperidin-4-ol] | 13.3 |
| OC1(c2ccc(-c3ccnc4[nH]ccc34)cc2)CCNCC1 [Compound 111, 4-(4-(1H-pyrrolo[2,3-b]pyridin-4-yl)phenyl)piperidin-4-ol] | > 50 |
| Cc1cc(-c2ccnc3[nH]cc(F)c23)cc(F)c1C1(O)CC2(CN(C3COC3)C2)C1 [Compound 139, 6-(2-fluoro-4-(3-fluoro-1H-pyrrolo[2,3-b]pyridin-4-yl)-6-methylphenyl)-2-(oxetan-3-yl)-2-azaspiro[3.3]heptan-6-ol] | > 30 |
| O=C([C@H]1CCCN1)N1CCC(O)(c2ccc(-c3ccnc4[nH]cc(F)c34)cc2)CC1 [Compound 142] | 39.8 |
| Fc1c[nH]c2nccc(-c3ccc(C4CCNCC4)cc3)c12 [Compound 169, 3-fluoro-4-(4-(piperidin-4-yl)phenyl)-1H-pyrrolo[2,3-b]pyridine] | 13.3 |
| Fc1c[nH]c2nccc(-c3ccc(C4CCNCC4)c(Cl)c3)c12 [Compound 172, 4-(3-chloro-4-(piperidin-4-yl)phenyl)-3-fluoro-1H-pyrrolo[2,3-b]pyridine] | > 50 |
| Clc1c[nH]c2nccc(-c3ccc(C4CCNCC4)cc3)c12 [Compound 173, 3-chloro-4-(4-(piperidin-4-yl)phenyl)-1H-pyrrolo[2,3-b]pyridine] | 73.9 |
| Cc1cc(-c2ccnc3[nH]ccc23)ccc1C1CCNCC1 [Compound 177, 4-(3-methyl-4-(piperidin-4-yl)phenyl)-1H-pyrrolo[2,3-b]pyridine] | 32 |
| c1cc(-c2ccc(C3CC4CCC(C3)N4)cc2)c2cc[nH]c2n1 (centres unmarked) [Compound 184, 4-(4-(8-azabicyclo[3.2.1]octan-3-yl)phenyl)-1H-pyrrolo[2,3-b]pyridine] | 27.4 |
| CC1CC(c2ccc(-c3ccnc4[nH]ccc34)cc2)CC(C)N1 (centres unmarked) [Compound 187, 4-(4-(2,6-dimethylpiperidin-4-yl)phenyl)-1H-pyrrolo[2,3-b]pyridine] | > 50 |
| CC1(c2ccc(-c3ccnc4[nH]ccc34)cc2)CCNCC1 [Compound 201, 4-(4-(4-methylpiperidin-4-yl)phenyl)-1H-pyrrolo[2,3-b]pyridine] | 7.51 |
| Cc1cc(-c2ccnc3[nH]cc(F)c23)ccc1CN [Compound 211, (4-(3-fluoro-1H-pyrrolo[2,3-b]pyridin-4-yl)-2-methylphenyl) methanamine] | 22.6 |
| NCc1ccc(-c2ccnc3[nH]cc(-c4ccccc4)c23)cc1-c1ccccc1 [Compound 219, (5-(3-phenyl-1H-pyrrolo[2,3-b]pyridin-4-yl)-[1,1′-biphenyl]-2-yl)methanamine] | > 50 |
| COC(=O)c1c[nH]c2nccc(-c3ccc(CN)cc3)c12 [Compound 223, methyl 4-(4-(aminomethyl)phenyl)-1H-pyrrolo[2,3-b]pyridine-3-carboxylate] | > 50 |

| Structure (SMILES) | IC50 [µM] |
| --- | --- |
| Cc1cccc(-c2c[nH]c3nccc(-c4ccc(CN)cc4)c23)c1 [Compound 230, (4-(3-(m-tolyl)-1H-pyrrolo[2,3-b]pyridin-4-yl)phenyl) methanamine] | 0.752 |
| CC(C)(N)c1ccc(-c2ccnc3[nH]cc(F)c23)cc1 [Compound 238, 2-(4-(3-fluoro-1H-pyrrolo[2,3-b]pyridin-4-yl)phenyl)propan-2-amine] | 9.53 |
| NCc1ccc(-c2ccnc3[nH]cc(-c4cccnc4)c23)cc1 [Compound 245, (4-(3-(pyridin-3-yl)-1H-pyrrolo[2,3-b]pyridin-4-yl)phenyl) methanamine] | 3.45 |
| NCc1ccc(-c2ccnc3[nH]cc(-c4ccccc4)c23)cc1 [Compound 253, (4-(3-phenyl-1H-pyrrolo[2,3-b]pyridin-4-yl)phenyl) methanamine] | 0.338 |
| Cc1cc(-c2ccnc3[nH]cc(Cl)c23)ccc1CN [Compound 254, (4-(3-chloro-1H-pyrrolo[2,3-b]pyridin-4-yl)-2-methylphenyl) methanamine] | 3.91 |
| Cc1cc(-c2ccnc3[nH]ccc23)ccc1CN [Compound 266, (2-methyl-4-(1H-pyrrolo[2,3-b]pyridin-4-yl)phenyl) methanamine] | > 50 |
| c1cc(-c2ccc3c(c2)CCNC3)c2cc[nH]c2n1 [Compound 267, 6-(1H-pyrrolo[2,3-b]pyridin-4-yl)-1,2,3,4-tetrahydroiso-quinoline] | 17.3 |
| c1cc(-c2ccc(C3CCCCN3)cc2)c2cc[nH]c2n1 (centres unmarked) [Compound 271, 4-(4-(piperidin-2-yl)phenyl)-1H-pyrrolo[2,3-b]pyridine] | 14.5 |
| NCc1ccc(-c2ccnc3[nH]cc(F)c23)cc1 [Compound 275, (4-(3-fluoro-1H-pyrrolo[2,3-b]pyridin-4-yl)phenyl) methanamine] | 2.06 |
| NCc1ccc(-c2ccnc3[nH]cc(Cl)c23)cc1 [Compound 276, (4-(3-chloro-1H-pyrrolo[2,3-b]pyridin-4-yl)phenyl) methanamine] | 4.14 |
| NCc1ccc(-c2ccnc3[nH]ccc23)cc1C(F)(F)F [Compound 284, (4-(1H-pyrrolo[2,3-b]pyridin-4-yl)-2-(trifluoromethyl)phenyl) methanamine] | > 50 |
| NCc1ccc(-c2ccnc3[nH]ccc23)cc1 [Compound 287, (4-(1H-pyrrolo[2,3-b]pyridin-4-yl)phenyl) methanamine] | > 50 |
| Cc1cc(-c2ccnc3[nH]cc(F)c23)cc(F)c1[C@@]1(O)[C@H](C)CN(C)C[C@@H]1C [Compound 304, (3S,4s,5R)-4-(2-fluoro-4-(3-fluoro-1H-pyrrolo[2,3-b]pyridin-4-yl)-6-methylphenyl)-1,3,5-trimethylpiperidin-4-ol] | 26 |
| Cc1cc(-c2ccnc3[nH]cc(F)c23)cc(F)c1[C@@]1(O)[C@H](C)CN(C(C)C)C[C@@H]1C [Compound 305, (3S,4s,5R)-4-(2-fluoro-4-(3-fluoro-1H-pyrrolo[2,3-b]pyridin-4-yl)-6-methylphenyl)-1-isopropyl-3,5-dimethylpiperidin-4-ol] | 29.4 |
| COC(=O)c1c[nH]c2nccc(-c3cc(C)c([C@@]4(O)[C@H](C)CN(C5CCS(=O)(=O)CC5)C[C@@H]4C)c(F)c3)c12 [Compound 309, methyl 4-(4-((3S,4s,5R)-1-(1,1-dioxidotetrahydro-2H-thiopyran-4-yl)-4-hydroxy-3,5-dimethylpiperidin-4-yl)-3-fluoro-5-methylphenyl)-1H-pyrrolo[2,3-b]pyridine-3-carboxylate] | 39.9 |
| COC(=O)c1c[nH]c2nccc(-c3cc(C)c([C@@]4(O)[C@H](C)CN(C(=O)CN)C[C@@H]4C)c(F)c3)c12 [Compound 310, methyl 4-(3-fluoro-4-((3S,4s,5R)-1-glycyl-4-hydroxy-3,5-dimethylpiperidin-4-yl)-5-methylphenyl)-1H-pyrrolo[2,3-b]pyridine-3-carboxylate] | 49.4 |
